Series [1] in a line: Blood glucose in rabbits pretreated with Insulin Actrapid after SC injection of glucagon or derivative. Format: in vivo.
Protocol: The resulting solution was sterilized by filtration and transferred to a vial.
Blood was sampled at times: −60, 0, 15, 30, 60, 120, 180 and 240 min, and the glucose concentration determined by the hexokinase method.
Series [2] is described as follows: Lipophilicity relative to human insulin (k′rel) by RP-HPLC. Format: physicochemical. As to conditions: LiChrosorb RP18 HPLC, isocratic elution, sodium phosphate buffer pH 7.3/acetonitrile. As for the experimental part:
The lipophilicity of peptides and peptide derivatives relative to human insulin, k′rel, was measured on a LiChrosorb RP18 (5 μm, 4×250 mm) HPLC column by isocratic elution at […] using mixtures of A) 0.1 M sodium phosphate buffer, pH 7.3, containing 10% acetonitrile, and B) 50% acetonitrile in water as eluents. The elution was monitored by following the UV absorption of the eluate at 214 nm. Void time, t0, was found by injecting 0.1 mM sodium nitrate. Retention time for human insulin, tinsulin was adjusted to at least 2t0 by varying the ratio between the A and B solutions. k′rel=(tderivative−t0 /(tinsulin−t0).

Residues, ends and D or L forms follow the SMILES beside them.

Here are results for two molecules from patent publication US20010016643A1, “Peptide derivatives” (priority 1995, published 2001).

“Lys^30 (N^ε-decanoyl) glucagon [Example 6]”: the blood glucose concentration in series [1] (15 min after SC injection) is on record as 79 mg glucose/100 ml; in series [1] (30 min after SC injection), 93 mg glucose/100 ml; in series [1] (60 min after SC injection), 114 mg glucose/100 ml; in series [1] (120 min after SC injection) it was 112 mg glucose/100 ml; in series [1] (180 min after SC injection) it was 116 mg glucose/100 ml; in series [1] (240 min after SC injection), 110 mg glucose/100 ml. Further, the blood glucose concentration in series [1] (time 0 min (SC injection of test substance)) is listed as 51 mg glucose/100 ml; in series [1] (time −60 min (at Insulin Actrapid 2 IU/animal, before test substance)) it was 94 mg glucose/100 ml. The “blood glucose raising effect” value in series [1] (SC, compared with glucagon) is recorded as “retained in Lys^30(Nε-decanoyl) glucagon but with a prolonged action”.
Turning to `CCCC[C@H](NC=O)C(=O)N[C@@H](CC(C)C)C(=O)N[C@@H](Cc1ccccc1)C(=O)N[C@@H](CCCC)C(=O)N[C@@H](Cc1ccc(O)cc1)C(=O)N[C@@H](CCCCN)C(=O)O` [For-Nle-Leu-Phe-Nle-Tyr-Lys-OH] (HELM PEPTIDE1{[O=C[*:2]].[Nle].L.F.[Nle].Y.K}$$$$V2.0), the “lipophilicity relative to human insulin, k′rel” value in series [2] is given as 2.3.
